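These data come from cells grown in 96-well plates and exposed to compound for 48 hours at five concentrations. At the GI50, growth is halved.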 Active and inactive are the calls of the source. No stated cut-off is given here; in the data, active = GI50 up to about 1.1 µM and inactive = higher.
Legend:
Experiment in all cases: growth of human tumour cells (NCI), 48 h
HCT-116 = system: HCT-116
SK-MEL-5 = system: SK-MEL-5
IGROV-1 = system: IGROV-1
OVCAR-3 = system: OVCAR-3
OVCAR-8 = system: OVCAR-8
UACC-62 = system: UACC-62
K562 = system: K562
NCI-H460 = system: NCI-H460
SNB-19 = system: SNB-19
EKVX = system: EKVX
COLO 205 = system: COLO 205
UO-31 = system: UO-31
HL-60 = system: HL-60
HCT-15 = system: HCT-15
SF-539 = system: SF-539
SK-OV-3 = system: SK-OV-3
OVCAR-4 = system: OVCAR-4
SK-MEL-28 = system: SK-MEL-28

SMILES	GI50 (HCT-116)	GI50 (SK-MEL-5)	GI50 (IGROV-1)	GI50 (OVCAR-3)	GI50 (OVCAR-8)	GI50 (UACC-62)	GI50 (K562)	GI50 (NCI-H460)	GI50 (SNB-19)	GI50 (EKVX)	GI50 (COLO 205)	GI50 (UO-31)	GI50 (HL-60)	GI50 (HCT-15)	GI50 (SF-539)	GI50 (SK-OV-3)	GI50 (OVCAR-4)	GI50 (SK-MEL-28)
O=S(=O)(OI(OI(OS(=O)(=O)C(F)(F)F)c1ccccc1)c1ccccc1)C(F)(F)F	23.7 µM (inactive)	13.5 µM (inactive)	55.8 µM (inactive)	93.3 µM (inactive)	48.8 µM (inactive)	64.4 µM (inactive)	6.43 µM (inactive)	39.5 µM (inactive)	44.3 µM (inactive)	58.9 µM (inactive)	51.2 µM (inactive)	47.2 µM (inactive)	4.33 µM (inactive)	> 100 µM	86.3 µM (inactive)	–	–	–
CN(C)/N=N/c1ccc(S(N)(=O)=O)cc1	> 100 µM (inactive)	> 100 µM (inactive)	> 100 µM (inactive)	> 100 µM (inactive)	> 100 µM (inactive)	> 100 µM (inactive)	> 100 µM (inactive)	> 100 µM (inactive)	> 100 µM (inactive)	> 100 µM (inactive)	> 100 µM (inactive)	> 100 µM (inactive)	–	> 100 µM	> 100 µM (inactive)	> 100 µM (inactive)	> 100 µM (inactive)	> 100 µM (inactive)
COc1c(C(=O)c2ccc([N+](=O)[O-])cc2)cc(C(C)(C)C)cc1C(C)(C)C	18.8 µM (inactive)	15.6 µM (inactive)	72.4 µM (inactive)	–	52.7 µM (inactive)	16.7 µM (inactive)	25.6 µM (inactive)	32.4 µM (inactive)	48.5 µM (inactive)	47.4 µM (inactive)	–	40.8 µM (inactive)	13.9 µM (inactive)	32 µM	64.4 µM (inactive)	> 100 µM (inactive)	43.1 µM (inactive)	22.8 µM (inactive)
COc1cc2ccn3c4cc(OC)c(OC)cc4cc3c2cc1OC	32.8 µM (inactive)	–	–	58.6 µM (inactive)	> 100 µM (inactive)	> 100 µM (inactive)	> 100 µM (inactive)	> 100 µM (inactive)	> 100 µM (inactive)	98.2 µM (inactive)	> 100 µM (inactive)	> 100 µM (inactive)	4.83 µM (inactive)	–	–	> 100 µM (inactive)	> 100 µM (inactive)	> 100 µM (inactive)
C[C@@H]1OC(=O)N2CCCC(=C3SCCCS3)C12 (stereo partly specified)	44.4 µM (inactive)	–	90.8 µM (inactive)	> 100 µM (inactive)	57.9 µM (inactive)	56.1 µM (inactive)	43.6 µM (inactive)	> 100 µM (inactive)	> 100 µM (inactive)	> 100 µM (inactive)	> 100 µM (inactive)	19.4 µM (inactive)	–	> 100 µM	> 100 µM (inactive)	> 100 µM (inactive)	> 100 µM (inactive)	> 100 µM (inactive)
CCCCCC/C(CC(=O)CCC(=O)NCCc1ccccc1)=N\Nc1ccc([N+](=O)[O-])cc1[N+](=O)[O-]	36.7 µM (inactive)	70.1 µM (inactive)	> 100 µM (inactive)	51.3 µM (inactive)	89.3 µM (inactive)	30.5 µM (inactive)	38.1 µM (inactive)	> 100 µM (inactive)	> 100 µM (inactive)	38.7 µM (inactive)	64.3 µM (inactive)	61.9 µM (inactive)	27.9 µM (inactive)	69.3 µM	> 100 µM (inactive)	> 100 µM (inactive)	–	> 100 µM (inactive)
C=CCC1(CC)C(=O)NC(=O)NC1=O [ETALLOBARBITAL]	> 100 µM (inactive)	–	> 100 µM (inactive)	> 100 µM (inactive)	> 100 µM (inactive)	> 100 µM (inactive)	> 100 µM (inactive)	> 100 µM (inactive)	> 100 µM (inactive)	> 100 µM (inactive)	> 100 µM (inactive)	> 100 µM (inactive)	> 100 µM (inactive)	> 100 µM	> 100 µM (inactive)	> 100 µM (inactive)	–	> 100 µM (inactive)

Reference: ChEMBL document CHEMBL1201862, “PubChem BioAssay data set” (2004)
